{
  "source": "patent US20240016894A1",
  "about": "“METHODS AND MATERIALS FOR AMELIORATING CREATINE DEFICIENCY DISORDERS” (The Regents of the University of California, priority 2022, published 2024)",
  "test_system": "Gamt−/− mice",
  "assay": "(18F)-FDG PET brain glucose uptake",
  "type": "in vivo, mouse",
  "conditions": "Gamt-deficient mice; sequence regular chow (5.24±0.76), oral creatine supplementation, then AAV (regular chow only)",
  "description": "Considering the importance of the creatine/phosphocreatine shuttle to cells with high-energy expenditures, we examined the uptake of glucose to the brain in Gamt-deficient mice. Fluorodeoxyglucose (18(F)-FDG)-positron-emission tomography (PET) is a well-established non-invasive imaging tool for monitoring changes in cerebral brain glucose metabolism in vivo. To examine restoration of hepatic Gamt and its effect as a treatment strategy in GAMT deficiency, we sought to examine the brain of this preclinical model. By measuring cerebral glucose metabolism with (18F)-FDG-PET we can detect neuronal dysfunction in vivo as brain glucose metabolism is determined by synaptic activity mainly in order to restore membrane potentials (26). To semi-quantitate tissue activity, we determined the activity divided by the decay-corrected activity injected into the mouse; this ratio is defined as the percent-injected dose per cubic centimeter in tissue (% ID/cc). […]\nWe evaluated if there was a substantial improvement in brain metabolism with restoration of GAMT activity in hepatocytes with a gene therapy approach and compared this to present day therapy with oral creatine supplementation. […]\nAnimals were anesthetized with 1.5% vaporized isoflurane, and injected with (18F)-FDG via tail vein. […] Co-registered PET/CT data were analyzed and quantified using AMIDE software. […]",
  "data": [
    {"smiles": "CN(CC(=O)O)C(=N)N", "note": "[creatine]", "values": [
      {"measurement": "Brain (18F)-FDG uptake, each mouse its own control", "result": "5.26±1.10", "unit": "% ID/cc"}
    ]}
  ]
}
